Assay results published in US12370230B2, “Hemp and PEA formulation and its use” (priority 2019, dated 2025).

How the values were obtained:
[1] = tested on: formalin-evoked acute and persistent nociceptive behaviors; assay: Formalin test (acute nocifensive response; PFD7 hypersensitivity and paw edema); type: in vivo, mice
Experimental: (§1) We used male CD-1 mice (9-10 weeks old; Charles River, Wilmington, MA, US) weighing 25-30 g upon arrival. They were randomly assigned to treatment groups and housed in ventilated plastic cages (4-5 per cage) in the animal facility of the University of California, Irvine. Animals were maintained in a pathogen-free environment (12-h light/dark cycle) under controlled temperature (20±2° C.) and humidity (55-60%) with food and water available ad libitum. Mice were allowed to acclimate for at least 7 days and experiments were conducted during the light phase of the light/dark cycle. All efforts were made to minimize the number of animals used and their discomfort. All procedures were approved by the Institutional Animal Care and Use Committee at the University of California, Irvine, and were carried out in strict accordance with the National Institutes of Health guidelines for the care and use of animals.
(§2) HOE (code: VOHO-MGC) and PEA (batch No 20190604_03) were supplied by Metagenics Inc. The chemical composition of HOE is presented in Table A below. The extract was aliquoted upon arrival at our facility and kept at −80° C. until use. Before tests, aliquots were thawed at room temperature and the extract was diluted to the desired dose in a vehicle of 85% distilled water/15% Tween 80. Defrosted samples were discarded after use. HOE was subjected to an internal quality control to monitor its content of CBD and CBDA over time. HOE, PEA and their combinations were administered in volumes of 10 mL/kg by oral gavage.
The formalin test was described in detail previously (e.g., see Dubuisson & Dennis, 1977). We injected formalin (1% v/v, 10 μL) or vehicle (saline, 10 μL) into the plantar surface of the right hind paw of male mice. Test compounds or vehicle (85% distilled water/15% Tween 80) were administered orally 1 h before formalin injection. Following injection, mice were immediately transferred to a transparent observation chamber where nocifensive behavior (time spent licking or biting the injected paw, number of shakings) was continuously recorded by a video camera for 60 min and then measured by trained observers blinded to experimental conditions. Behavioral tests and paw edema measurements were performed on post-formalin day (PFD) 7 in both the injected (ipsilateral) and contralateral paws.
(§3) Mechanical sensitivity was assessed using a dynamic plantar aesthesiometer (Cat. No 37450, Ugo Basile, Italy). Mice were placed individually in transparent cages positioned on a wire mesh surface. After a 45-min habituation period, a mechanical stimulus was delivered to the plantar surface of the hind paws through the metal grid by an automated steel filament exerting an increasing force ranging from 0 to 5 grams over 10 s. The force at which the mouse withdrawn its paw (withdrawal threshold, in grams) was measured automatically. Thermal sensitivity was measured using a Hargreaves plantar test apparatus (San Diego Instruments, Inc, CA, USA). Mice were individually placed in small enclosures with a glass floor. After a 45-min habituation period, the plantar surface of the hind paws was exposed to a beam of radiant heat (infrared heat intensity: 3.0) through the glass floor. The cut-off time was set at 15 s. The time taken to withdraw the paw from heat stimulus (withdrawal latency, in seconds) was measured automatically. Each paw was tested 3 times with a 2-min interval between stimuli and the mean paw withdrawal threshold and latency were calculated. Paw thickness was measured in both ipsilateral and contralateral paws using a digital caliper (Cat. No 06-664-16, Fisher scientific, USA). Paw edema was quantified as the difference (paw thickness, in mm) between the ipsilateral paw thickness and the contralateral counterpart.
Results are presented as mean S.E.M. of n experiments. ED50 values were determined by linear regression analysis of dose-response curves. […]

[2] = tested on: CCI-evoked mechanical allodynia and heat hyperalgesia; assay: Chronic constriction injury (CCI) of the sciatic nerve: mechanical allodynia and heat hyperalgesia; type: in vivo, mice
Experimental: as §1, §2
(§4) We elicited peripheral neuropathy in the left sciatic nerve of mice as described elsewhere (e.g., see Bennett & Xie, 1988). In brief, mice were anesthetized in 2-3% isoflurane in O2. Under aseptic conditions, the sciatic nerve was exposed at mid-thigh level through a small incision and loosely tied at 3 distinct sites (spaced at 1-mm interval) with 4-0 chromic catgut (Ethicon, USA). The wound was closed with a single muscle suture (Mersilk 5.0, Ethicon, USA) and glue to fasten the skin. Operated mice were returned to their home cages for recovery. Test compounds or vehicle were given by the oral route on day 7 after surgery (acute treatment) and then repeatedly once daily for 7 consecutive days (subchronic treatment). Behavioral tests were performed within 1 h of acute treatment or last subchronic treatment in both operated (ipsilateral) and contralateral paws. Mice were sacrificed by decapitation, the spinal cords were extruded by hydraulic pressure and processed for specific mRNA quantification in lumbar segments by real-time quantitative PCR.
as §3, with “Paw edema was quantified as the difference (paw thickness, in mm) between the ipsilateral paw thickness and the contralateral counterpart.” left out

IL-10 mRNA = assay: Real-time quantitative PCR in lumbar spinal cords of CCI mice, IL-10; type: in vivo; conditions: PEA 20 mg/kg alone, oral, lumbar spinal cord, vs vehicle
Description: as §4, with “Test compounds or vehicle were given by the oral route on day 7 after surgery (acute treatment) and then repeatedly once daily for 7 consecutive days (subchronic treatment). Behavioral tests were performed within 1 h of acute treatment or last subchronic treatment in both operated (ipsilateral) and contralateral paws.” left out
We extracted total RNA from lumbar spinal cords (L3-L6) using TRIzol™ reagent (Thermo Fisher Scientific, Walthman, USA) and purified with the PureLink™ RNA Mini Kit (Invitrogen, Carlsbad, USA) as directed by the supplier. […] RNA concentration and purity were determined using the NanoDrop 2000/2000-c spectrophotometer (Thermo Fisher Scientific, Walthman, USA). cDNA was synthesized using 2 μg of total RNA as input for the High-Capacity cDNA RT Kit with RNase Inhibitor (Applied BioSystems, Foster City, USA) with a final reaction volume of 20 μL. […]

[3] = PEA 300 mg/kg oral single dose, PFD7, vs vehicle
[4] = PEA at dosages lower than 300 mg/kg oral, PFD7, P>0.05 vs vehicle
[5] = PEA 100 or 300 mg/kg oral once daily for 7 consecutive days, day 14 after CCI
[6] = single oral PEA administration, dose-response, day 7 after CCI, vs vehicle

Compound: CCCCCCCCCCCCCCCC(=O)NCCO [PEA, palmitoylethanolamide]
- alleviation of heat hyperalgesia, contralateral paw [1, 3]: 110%
- alleviation of heat hyperalgesia, ipsilateral paw [1, 3]: 93%
- attenuation of mechanical allodynia, contralateral paw [1, 3]: 112%
- attenuation of mechanical allodynia, ipsilateral paw [1, 3]: 91%
- formalin-evoked nocifensive response ([1]; PEA 10, 30, 100 and 300 mg/kg oral): dose-dependent suppression
- formalin-evoked inflammatory response (paw thickness) ([1]; PEA 10, 30, 100 and 300 mg/kg oral, PFD7): dose-dependent suppression
- effect on heat hyperalgesia [1, 4]: no effect
- effect on mechanical allodynia [1, 4]: no effect
- effect on heat hyperalgesia, subchronic [2, 5]: reversed
- effect on mechanical allodynia, subchronic [2, 5]: reversed
- ED50, suppression of mechanical allodynia ([2]; single oral PEA administration, day 7 after CCI, 95% CI 18.7 to 26.0): 22.2 mg/kg
- ED50, suppression of heat hyperalgesia ([2]; single oral PEA administration, day 7 after CCI, 95% CI 21.8 to 29.1): 25.1 mg/kg
- suppression of heat hyperalgesia (maximal) [2, 6]: ≤ 109%
- suppression of mechanical allodynia (maximal) [2, 6]: up to 85%
- IL-10 mRNA levels (IL-10 mRNA): halved
